Source: patent USRE49873E1, “APP specific bace inhibitors (ASBIs) and uses thereof” (BUCK INSTITUTE FOR RESEARCH ON AGING, priority 2012, dated 2024)

Tests used:
in vivo = assay: in vivo; design: species or system mice; settings: mouse; for brain Cmax of galangin: sc, 10 mg/kg
Description: The brain penetrance of galangin and progalangin were assessed in a standard PK comprising subcutaneous (Sub-Q) injection of 5 adult non-transgenic mice with 50 ul of a 5 mg/ml stock of compound in dimethylsulfoxide (DMSO) or a dose of 10 mg/kg for a 25 g mouse. Injected mice were anesthetized with ketamine/xylazine at 1, 2, 4, 6, and 8 hours and blood collected by cardiac puncture. The mice were then perfused with saline and brain tissue dissected and snap frozen on dry ice. Blood was centrifuged at 3000 rpm for 10 minutes and the plasma supernatant collected. Both plasma and the right hemibrain were sent to Integrated Analytical Solutions (IAS, Berkeley, Calif.) with a reference sample of compound for compound level analysis in tissue and plasma. The compound levels were determined using a LC-MS/MS approach.
CNS exposure studies were performed and consisted of a time-course design to collect heparinized plasma and brains. Following sc administration of the galangin or progalangin (compound-2) at 10 mg/kg, plasma and brain levels of the compounds were determined by quantitative LC/MS/MS methodology. Plasma samples were precipitated with acetonitrile:methanol (1:1) cocktail containing an internal standard. The brain samples were homogenized directly in ethylacetate or extracted from 5M guanidine homogenates with the liquid-liquid method. The resulting supernatant was evaporated to dryness and subjected to the LC/MS/MS analysis. For each compound 5 mice were used for the analysis. The brain-to-plasma ratios and plasma/brain Cmax levels were then determined (see, e.g., FIG. 8).

[1] = system: Aβ1-40 and Aβ1-42 levels in hippocampal/entorhinal cortical tissue; assay: Pilot efficacy testing in PDAPP (J20) AD model mice, Aβ ELISA; format: in vivo; settings: 40 mpk sc daily for 14 days, hippocampus and cortex, 40 mg/kg
Description: Galangin and progalangin (PG-1) were dissolved in 10% solutol/15% DMSO/75% polyethylene glycol (PEG). Stock solutions were prepared at 10 mg/ml for each compound and 100 ul was injected subcutaneously daily for 14 days at a dose of 40 mkd. There were 5 PDAPP AD model J20 mice in both the galangin and progalangin groups, and 9 vehicle-only treated J20 controls. Mice were anesthetized, blood collected for plasma, and brain tissue collected as described above 2 hours after injection on the last day of treatment. The right hemibrain was further microdissected to isolate hippocampus and entorhinal cortex and this combined tissue was used for biochemical analysis. The remaining tissue and plasma was sent to IAS for compound level analysis.
Aβ1-42 and Aβ1-40 levels were determined using the hippocampal/entorhinal cortical tissue. Briefly, frozen tissue samples were weighed, and a 20% w/v sonicate prepared in 5M guandine-HCl/50 mM Tris, pH8. Sonication was performed with sample tubes in ice water, 4×5 seconds at 60 Hz, then 3×5 seconds at 80 Hz. Samples were then rotated at room temperature for 3 hours and frozen at −20° C. until assay. Invitrogen ELISA kits were used for Aβ1-40 and Aβ1-42 according to the manufacturer's instructions.

[2] = system: APLP2-Gal4 transactivation in HEK293T cells; assay: APLP2-Gal4/Mint3/TAZ transactivation assay; format: cell-based; settings: Mint3 and TAZ present; galangin at 10 μM
Excerpt: (§1) FIGS. 7A and 7B illustrate inhibition of APP-Gal4 and APLP2-Gal4 transactivation by galangin. […] This transactivation was inhibited by Galangin and BACE inhibitor IV. FIG. 7B: Potent transactivation of transcription was also achieved with APLP2 fused to the Gal4 DNA binding domain when both Mint3 and TAZ were present. This transactivation was inhibited by Galangin and BACE inhibitor IV. […] The normalized luciferase activity is expressed as a percentage of the DMSO treated control (FIGS. 7A, 7B). Error bars indicate SEM. (*, p<0.05; **, p<0.01; ***, p<0.001; n=3, student t test).
(§2) This assay system is described by Orcholski et al. (2011) J. Alzheimers Dis., 23(4):689-699. Transactivation is achieved upon transfection with Mint3 and Taz. The ASBI was expected to inhibit only the transactivation of APP-Gal4, not that of APLP2-Gal4. For these experiments cells were co-transfected with a Gal4-luciferase reporter plasmid (to measure transactivation), a beta-galactosidase plasmid (to normalize for transfection efficiency), and the test plasmids identified. The normalized luciferase activity was expressed as fold induction over transcription by APP-Gal4 alone (FIG. 7A), or as fold induction over APLP2-Gal4 alone (FIG. 7B).
(§3) HEK293T cells were co-transfected with five plasmids: (1) pG5E1B-luc, 0.3 μg; (2) pCMV-LacZ, 0.1 μg; (3) pMst-APP (APP-Gal4) or pcDNA3.1-APLP2-Gal4, 0.3 μg; (4) pCMV5-Mint3, 1.0 μg; (5) pEF-N-FLAG-TAZ, 1.0 μg. Cells were harvested 48 hr after transfection in 0.2 ml per well Cell Culture Lysis Buffer (Promega), and their luciferase and β-galactosidase activities were determined with the Promega luciferase assay kit and the Promega β-galactosidase assay kit, respectively. The luciferase activity was standardized by the β-galactosidase activity to control for transfection efficiency and general effects on transcription. Transfections were performed at 80-90% cofluency in six-well plates using Lipofectamine 2000 (Invitrogen).

[3] = system: APP-Gal4 transactivation in HEK293T cells; assay: APP-Gal4/Mint3/TAZ transactivation assay; format: cell-based; settings: Mint3 and TAZ present; galangin at 10 μM
Excerpt: as §1, §2, §3

Row | Molecule | galangin levels after PG-1 injection versus galangin itself (in vivo) | plasma levels versus brain tissue levels (in vivo) | brain Cmax of galangin (in vivo) | Aβ1-40 (Aβ40) levels in brain [1] | Aβ1-42 (Aβ42) levels in brain [1] | Aβ1-40 (Aβ40) levels in brain ([1]; listed as pro-galangin I) | Aβ1-42 (Aβ42) levels in brain ([1]; listed as pro-galangin I) | Aβ1-40 (Aβ40) levels in brain ([1]; listed as progalangin) | Aβ1-42 (Aβ42) levels in brain ([1]; listed as progalangin) | brain penetration (in vivo) | APLP2-Gal4 transactivation [2] | APP-Gal4 transactivation [3]
1 | CC(=O)Oc1cc(OC(C)=O)c2c(=O)c(O)c(-c3ccccc3)oc2c1 [PG-1, 5,7-Diacetoxy-3-hydroxyflavone] | much higher | Plasma levels were greater than brain tissue levels | ~100 ng/g | more effective in vivo than galangin | more effective in vivo than galangin | slightly lowered | slightly lowered | reduction | reduction | – | – | –
2 | C[C@@H]1O[C@@H](OC[C@H]2O[C@@H](Oc3c(-c4ccc(O)c(O)c4)oc4cc(O)cc(O)c4c3=O)[C@H](O)[C@@H](O)[C@@H]2O)[C@H](O)[C@H](O)[C@H]1O [Rutin] | – | – | no rutin was detectable in the brain | – | – | – | – | – | – | does not cross the blood-brain barrier | – | –
3 | BACE inhibitor IV [reference compound] | – | – | – | – | – | – | – | – | – | – | inhibited | inhibited
